Legend:
RIPK1 = biological target: T1, RIPK1 (Homo sapiens, UniProt Q13546); test: RIPK1 ADP-Glo biochemical kinase assay; conditions: read-out: RIPK1 ADP-Glo Kinase (IC50)
T1 sequence (Q13546 1-671): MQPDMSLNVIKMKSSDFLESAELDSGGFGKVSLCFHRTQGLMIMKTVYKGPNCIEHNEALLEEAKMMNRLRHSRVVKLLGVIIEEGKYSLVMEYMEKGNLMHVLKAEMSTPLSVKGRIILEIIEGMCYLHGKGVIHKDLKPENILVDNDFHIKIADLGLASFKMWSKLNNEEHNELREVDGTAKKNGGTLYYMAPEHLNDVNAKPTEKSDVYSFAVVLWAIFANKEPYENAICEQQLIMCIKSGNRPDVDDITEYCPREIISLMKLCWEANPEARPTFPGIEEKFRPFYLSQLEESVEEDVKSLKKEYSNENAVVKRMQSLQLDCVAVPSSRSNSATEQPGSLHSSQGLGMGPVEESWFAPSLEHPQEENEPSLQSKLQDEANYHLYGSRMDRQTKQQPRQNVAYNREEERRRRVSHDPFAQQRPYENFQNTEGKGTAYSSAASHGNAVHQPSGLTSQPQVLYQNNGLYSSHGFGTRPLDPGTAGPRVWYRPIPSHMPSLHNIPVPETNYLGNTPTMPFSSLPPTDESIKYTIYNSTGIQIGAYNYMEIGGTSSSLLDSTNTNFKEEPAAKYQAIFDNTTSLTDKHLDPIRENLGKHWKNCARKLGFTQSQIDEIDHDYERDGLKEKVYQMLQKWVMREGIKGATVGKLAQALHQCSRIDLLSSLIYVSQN
Outline: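 RIPK1 at 31 ng/well in Tris pH 7.4 buffer with MgCl2, BSA, DTT and MnCl2, reacted with compounds (duplicate) for 30 min at 30 °C. ADP formed detected by ADP-Glo: 40 min stop/depletion, then 30 min detection reagent at room temperature; luminescence read.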

L929 cells = test: L929 cell necroptosis assay (TNFa + zVAD, CellTiter-Glo recovery); format: cell-based, murine; conditions: Mus musculus, L929, 18 h, TNFa 2 ng/mL + zVAD-fmk, read-out: L929-CTG-recovery, L929, TNFa + zVAD (IC50)
Outline: (§1)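 Human U937 (50K/well, 60 uM zVAD-fmk medium, plated same day) or murine L929 (10K/well, plated 18 h, then 40 uM zVAD-fmk medium) were grown in RPMI with 10% FBS. Both were pretreated with compound for 1 h at 37 °C before TNFa at 2 ng/mL final. Viability was read by CellTiter-Glo luminescence after 18 h.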

U937 cells = test: U937 cell necroptosis assay (TNFa + zVAD, CellTiter-Glo recovery); format: cell-based; conditions: Homo sapiens, U-937, 18 h, TNFa 2 ng/mL + zVAD-fmk, read-out: U937 Zvad TNF CTG Recovery, U937, TNFa + zVAD (IC50)
Outline: as §1

SMILES	IC50 (RIPK1) [nM]	IC50 (L929 cells) [nM]	IC50 (U937 cells) [nM]
CN1C(=O)[C@@H](NC(=O)n2cc(Cc3cccc(F)n3)cn2)CCc2ccc(Br)cc21 [I-35, (S)—N-(8-Bromo-1-methyl-2-oxo-2,3,4,5-tetrahydro-1H-benzo[b]azepin-3-yl)-4-((6-fluoropyridin-2-yl)methyl)-1H-pyrazole-1-carboxamide]	19.4	6860	70
CN1C(=O)[C@@H](NC(=O)n2cc(Cc3cccnc3)cn2)COc2ccc(C#CC(C)(C)O)cc21 [I-14, (S)—N-(7-(3-Hydroxy-3-methylbut-1-yn-1-yl)-5-methyl-4-oxo-2,3,4,5-tetrahydrobenzo[b][1,4]oxazepin-3-yl)-4-(pyridin-3-ylmethyl)-1H-pyrazole-1-carboxamide]	17.6	1170	14.3
CN1C(=O)[C@@H](NC(=O)c2cc(Oc3cnn(C)c3)ccn2)COc2ccc(C#CC3(O)CCC3)cc21 [I-133, (S)—N-(7-((1-hydroxycyclobutyl)ethynyl)-5-methyl-4-oxo-2,3,4,5-tetrahydrobenzo[b][1,4]oxazepin-3-yl)-4-((1-methyl-1H-pyrazol-4-yl)oxy)picolinamide]	14	58.2	5.2
CN1C(=O)[C@@H](NC(=O)c2cc(Cc3cccc(F)n3)ccn2)COc2ccc(C#CC3(O)COC3)cc21 [I-7, (S)-4-((6-fluoropyridin-2-yl)methyl)-N-(7-((3-hydroxyoxetan-3-yl)ethynyl)-5-methyl-4-oxo-2,3,4,5-tetrahydrobenzo[b][1,4]oxazepin-3-yl)picolinamide]	18.6	449	14.8
CN1C(=O)[C@@H](NC(=O)c2cc(Oc3ccc(F)nc3)ccn2)COc2ccc(C#CC3(O)COC3)cc21 [I-5, (S)-4-((6-fluoropyridin-3-yl)oxy)-N-(7-((3-hydroxyoxetan-3-yl)ethynyl)-5-methyl-4-oxo-2,3,4,5-tetrahydrobenzo[b][1,4]oxazepin-3-yl)picolinamide]	24.6	2020	34.9
CN1C(=O)[C@@H](NC(=O)c2cc(Oc3cccnc3C(F)(F)F)ccn2)COc2ccc(C#CC3(O)COC3)cc21 [I-88, (S)—N-(7-((3-hydroxyoxetan-3-yl)ethynyl)-5-methyl-4-oxo-2,3,4,5-tetrahydrobenzo[b][1,4]oxazepin-3-yl)-4-((2-(trifluoromethyl)pyridin-3-yl)oxy)picolinamide]	56.3	10600	133
CN1C(=O)[C@@H](NC(=O)c2cc(Cc3csc(C(F)(F)F)n3)ccn2)COc2ccc(C#CC(C)(C)O)cc21 [I-123, (S)—N-(7-(3-hydroxy-3-methylbut-1-yn-1-yl)-5-methyl-4-oxo-2,3,4,5-tetrahydrobenzo[b][1,4]oxazepin-3-yl)-4-((2-(trifluoromethyl)thiazol-4-yl)methyl)picolinamide]	20	853	97.8
CN1C(=O)[C@@H](NC(=O)c2cc(Oc3cncc(F)c3)ccn2)COc2ccc(C#CC3COC3)cc21 [I-67, (S)-4-((5-fluoropyridin-3-yl)oxy)-N-(5-methyl-7-(oxetan-3-ylethynyl)-4-oxo-2,3,4,5-tetrahydrobenzo[b][1,4]oxazepin-3-yl)picolinamide]	20.1	348	1.3
CN1C(=O)[C@@H](NC(=O)n2cc(Cc3cccnc3F)cn2)COc2ccc(C#CC3(O)COC3)cc21 [I-47, (S)-4-((2-Fluoropyridin-3-yl)methyl)-N-(7-((3-hydroxyoxetan-3-yl)ethynyl)-5-methyl-4-oxo-2,3,4,5-tetrahydrobenzo[b][1,4]oxazepin-3-yl)-1H-pyrazole-1-carboxamide]	17.5	2900	40.8
Cc1ncccc1Oc1ccnc(C(=O)N[C@H]2COc3ccc(C#CC4(O)COC4)cc3N(C)C2=O)c1 [I-75, (S)—N-(7-((3-hydroxyoxetan-3-yl)ethynyl)-5-methyl-4-oxo-2,3,4,5-tetrahydrobenzo[b][1,4]oxazepin-3-yl)-4-((2-methylpyridin-3-yl)oxy)picolinamide]	10.4	1870	34.3
CN1C(=O)[C@@H](NC(=O)c2cc(Oc3cnn(C)c3)ccn2)COc2ccc(C#CC3CCOCC3)cc21 [I-136, (S)-4-((1-methyl-1H-pyrazol-4-yl)oxy)-N-(5-methyl-4-oxo-7-((tetrahydro-2H-pyran-4-yl)ethynyl)-2,3,4,5-tetrahydrobenzo[b][1,4]oxazepin-3-yl)picolinamide]	7.7	5.4	0.7
CN1C(=O)[C@@H](NC(=O)c2cc(Cc3cccnc3F)ccn2)COc2ccc(C#CC3(O)COC3)cc21 [I-26, (S)-4-((2-fluoropyridin-3-yl)methyl)-N-(7-((3-hydroxyoxetan-3-yl)ethynyl)-5-methyl-4-oxo-2,3,4,5-tetrahydrobenzo[b][1,4]oxazepin-3-yl)picolinamide]	35.5	407	5.3
CN1C(=O)[C@@H](NC(=O)c2cc(Oc3cncc(F)c3)ccn2)COc2ccc(C#CC3(O)CCC3)cc21 [I-100, (S)-4-((5-fluoropyridin-3-yl)oxy)-N-(7-((1-hydroxycyclobutyl)ethynyl)-5-methyl-4-oxo-2,3,4,5-tetrahydrobenzo[b][1,4]oxazepin-3-yl)picolinamide]	28	1100	4.1
CN1C(=O)[C@@H](NC(=O)c2cc(Oc3cnn(C)c3)ccn2)COc2ccc(C#CC(C)(C)C)cc21 [I-132, (S)—N-(7-(3,3-dimethylbut-1-yn-1-yl)-5-methyl-4-oxo-2,3,4,5-tetrahydrobenzo[b][1,4]oxazepin-3-yl)-4-((1-methyl-1H-pyrazol-4-yl)oxy)picolinamide]	24.2	71.8	4.1
CN1C(=O)[C@@H](NC(=O)n2cc(Cc3cccc(F)n3)cn2)COc2ccc(C#CC3(O)COC3)cc21 [I-32, (S)-4-((6-Fluoropyridin-2-yl)methyl)-N-(7-((3-hydroxyoxetan-3-yl)ethynyl)-5-methyl-4-oxo-2,3,4,5-tetrahydrobenzo[b][1,4]oxazepin-3-yl)-1H-pyrazole-1-carboxamide]	16.2	682	16.3
CN1C(=O)[C@@H](NC(=O)c2cc(Cc3ccccn3)ccn2)COc2ccc(C#CC3(O)COC3)cc21 [I-64, (S)—N-(7-((3-hydroxyoxetan-3-yl)ethynyl)-5-methyl-4-oxo-2,3,4,5-tetrahydrobenzo[b][1,4]oxazepin-3-yl)-4-(pyridin-2-ylmethyl)picolinamide]	30.7	767	67.9
CN1C(=O)[C@@H](NC(=O)c2cc(Cn3cccn3)ccn2)COc2ccc(C#CC(C)(C)O)cc21 [I-71, (S)-4-((1H-pyrazol-1-yl)methyl)-N-(7-(3-hydroxy-3-methylbut-1-yn-1-yl)-5-methyl-4-oxo-2,3,4,5-tetrahydrobenzo[b][1,4]oxazepin-3-yl)picolinamide]	87.8	2150	549
CN1C(=O)[C@@H](NC(=O)n2cc(Cc3cccc(F)n3)cn2)COc2ccc(C#CC3CCOCC3)cc21 [I-34, (S)-4-((6-Fluoropyridin-2-yl)methyl)-N-(5-methyl-4-oxo-7-((tetrahydro-2H-pyran-4-yl)ethynyl)-2,3,4,5-tetrahydrobenzo[b][1,4]oxazepin-3-yl)-1H-pyrazole-1-carboxamide]	15.3	68.1	1.3
CN1C(=O)[C@@H](NC(=O)n2cc(Cc3cccnc3F)cn2)COc2ccc(C#CC3CCOCC3)cc21 [I-45, (S)-4-((2-Fluoropyridin-3-yl)methyl)-N-(5-methyl-4-oxo-7-((tetrahydro-2H-pyran-4-yl)ethynyl)-2,3,4,5-tetrahydrobenzo[b][1,4]oxazepin-3-yl)-1H-pyrazole-1-carboxamide]	45	512	5.2
CN1C(=O)[C@@H](NC(=O)n2cc(Cc3ccc(F)nc3F)cn2)COc2ccc(C#CC(C)(C)O)cc21 [I-50, (S)-4-((2,6-Difluoropyridin-3-yl)methyl)-N-(7-(3-hydroxy-3-methylbut-1-yn-1-yl)-5-methyl-4-oxo-2,3,4,5-tetrahydrobenzo[b][1,4]oxazepin-3-yl)-1H-pyrazole-1-carboxamide]	181	17600	62.3
